Kd data for nine compounds are collected here from US20250011368A1, “DLL3 TARGETING PEPTIDES AND CONSTRUCTS THEREOF” (MARIANA ONCOLOGY INC., priority 2023, published 2025).

pKd: −log10 of the molar value. Numbered stars: 1 amine (or outer) side, 2 acyl side, 3 side chain; on linkers, the order of the positions; unused ones are H or OH. Bridge positions count the residues as written; N and C are the ends. Square brackets hold non-standard residues; d marks the D form. Side chains are listed from the residue outwards. Peptide text beside a SMILES is read from it. * marks the point of attachment. ξ: configuration not given here. X4 = O=C(O)CN1CCN(CC(=O)O)CCN(CC(=O)N[C@H]2CC[C@H](CC(=O)*)CC2)CCN(CC(=O)O)CC1; DOTA = O=C(O)CN1CCN(CC(=O)O)CCN(CC(=O)*)CCN(CC(=O)O)CC1; X3 = CC[C@H](c1c[nH]c2ccccc12)[C@H](N[*:1])C(=O)[*:2]; Trp(5-F) = N[C@@H](Cc1c[nH]c2ccc(F)cc12)C(=O)O; Trp(7-aza) = N[C@@H](Cc1c[nH]c2ncccc12)C(=O)O; γGlu = O=C(O)[C@H](CCC(=O)[*:2])N[*:1]; 2Nal = N[C@@H](Cc1ccc2ccccc2c1)C(=O)O; Nva(3-Et) = CCC(CC)[C@H](N)C(=O)O; tBuAla = CC(C)(C)C[C@H](N)C(=O)O; 3Pal = N[C@@H](Cc1cccnc1)C(=O)O; Chg = N[C@H](C(=O)O)C1CCCCC1; NMeA = CN[C@@H](C)C(=O)O; Abu = CC[C@H](N)C(=O)O; ξD = NC(CC(=O)O)C(=O)O

This assay deals with T1, human DLL3 (Homo sapiens, UniProt Q9NYJ7).
T1 sequence (Q9NYJ7 27-618): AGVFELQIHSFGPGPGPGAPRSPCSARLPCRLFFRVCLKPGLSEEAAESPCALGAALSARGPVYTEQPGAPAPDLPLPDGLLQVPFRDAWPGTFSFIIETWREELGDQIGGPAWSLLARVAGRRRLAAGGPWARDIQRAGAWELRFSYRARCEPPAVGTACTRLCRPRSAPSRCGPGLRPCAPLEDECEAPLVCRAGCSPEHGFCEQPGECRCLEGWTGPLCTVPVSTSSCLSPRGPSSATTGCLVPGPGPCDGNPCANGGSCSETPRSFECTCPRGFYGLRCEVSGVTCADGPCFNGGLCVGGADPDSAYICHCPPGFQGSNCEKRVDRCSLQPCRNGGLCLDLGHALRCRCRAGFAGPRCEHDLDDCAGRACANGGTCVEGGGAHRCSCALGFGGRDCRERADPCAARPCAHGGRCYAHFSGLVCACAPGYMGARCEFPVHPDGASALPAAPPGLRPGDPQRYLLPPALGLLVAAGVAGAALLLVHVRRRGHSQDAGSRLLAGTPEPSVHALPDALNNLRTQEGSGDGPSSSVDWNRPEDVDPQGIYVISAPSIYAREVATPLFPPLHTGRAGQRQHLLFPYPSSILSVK
Briefly: Affinity determination by Surface Plasmon Resonance (SPR). Format: binding. Particulars: 25° C., biotinylated human DLL3 immobilized on streptavidin sensor chip, 1:1 binding model; read-out: SPR KD. An outline of the steps:
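Kinetic and affinity constants were derived by fitting sensorgrams to a 1:1 binding model. Graded compound concentrations flowed at 100 μL/minute in 20 mM phosphate running buffer with 2% DMSO over streptavidin-immobilized biotinylated human DLL3, reference-subtracted.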
Take `CC(=O)N[C@@H](Cc1c[nH]c2ccccc12)C(=O)N[C@H](C(=O)N[C@H](C(=O)N[C@H]1CSSC[C@@H](C(=O)N[C@@H](Cc2c[nH]c3ncccc23)C(=O)N2CCC[C@H]2C(=O)N[C@H](CCCCNC(=O)C[C@H]2CC[C@H](NC(=O)CN3CCN(CC(=O)O)CCN(CC(=O)O)CCN(CC(=O)O)CC3)CC2)C(N)=O)NC(=O)[C@H](CC(=O)O)NC(=O)[C@H](Cc2cnc[nH]2)NC(=O)[C@H](Cc2ccc3ccccc3c2)NC(=O)[C@H](CC(N)=O)NC(=O)[C@H](CC(N)=O)NC1=O)C1CCCCC1)[C@@H](C)O` [compound 203, Ac-W-T-(Chg)-C(3)-N-N-(2Nal)-H-D-C(3)-(7-Aza-W)-P-[D-Lys(Chx-DOTA)]-NH2] (Ac-WT[Chg]CNN[2Nal]HDC[Trp(7-aza)]P[dK](X4)-NH2; disulfide 4-10): the pKd was above 9.00. Regarding `CC[C@H](C)[C@H](NC(=O)[C@@H](NC(=O)[C@H](Cc1c[nH]c2ccc(F)cc12)NC(C)=O)[C@@H](C)O)C(=O)N[C@H]1CSSC[C@@H](C(=O)N[C@@H](Cc2c[nH]c3ccccc23)C(=O)N2CCC[C@H]2C(=O)N[C@H](CCCCNC(=O)CN2CCN(CC(=O)O)CCN(CC(=O)O)CCN(CC(=O)O)CC2)C(N)=O)NC(=O)[C@H](CC(=O)O)NC(=O)[C@H](Cc2c[nH]cn2)NC(=O)[C@H](Cc2c[nH]c3ccccc23)NC(=O)[C@H](CC(N)=O)NC(=O)[C@H](CC(N)=O)NC1=O` [compound 100, Ac-(5Fluoro-W)-T-I-C(3)-N-N-W-H-D-C(3)-W-P-[D-Lys(DOTA)]-NH2] (Ac-[Trp(5-F)]TICNNWHDCWP[dK](DOTA)-NH2; disulfide 4-10), the pKd was above 9.00. To `CC[C@H](NC(C)=O)C(=O)N[C@H](C(=O)N[C@H](C(=O)N[C@H]1CSSC[C@@H](C(=O)N[C@@H](Cc2c[nH]c3ccccc23)C(=O)N2CCC[C@H]2C(=O)N[C@@H](CCC(=O)N[C@@H](CCC(=O)N[C@@H](CCC(=O)N[C@H](CCCCNC(=O)CN2CCN(CC(=O)O)CCN(CC(=O)O)CCN(CC(=O)O)CC2)C(N)=O)C(=O)O)C(=O)O)C(=O)O)NC(=O)[C@H](CC(=O)O)NC(=O)[C@H](Cc2cnc[nH]2)NC(=O)[C@H](Cc2ccc3ccccc3c2)NC(=O)[C@H](CC(N)=O)NC(=O)[C@H](CC(N)=O)NC1=O)[C@H](CC)c1c[nH]c2ccccc12)[C@@H](C)O` [compound 234, Ac-W-T-I-C(3)-N-N-(2Nal)-H-D-C(3)-W-P-gE-gE-gE-[D-Lys(DOTA)]-NH2] (Ac-[Abu]T[X3]CNN[2Nal]HDCWP[γGlu][γGlu][γGlu][dK](DOTA)-NH2; disulfide 4-10) belongs above 9.00; to `CC[C@H](C)[C@H](NC(=O)[C@@H](NC(=O)[C@H](Cc1c[nH]c2ccccc12)NC(C)=O)[C@@H](C)O)C(=O)N[C@H]1CSSC[C@@H](C(=O)N[C@@H](Cc2c[nH]c3ccccc23)C(=O)N2CCC[C@H]2C(=O)N[C@H](CCCCNC(=O)CC[C@H](NC(=O)CC[C@H](NC(=O)CC[C@H](NC(=O)CN2CCN(CC(=O)O)CCN(CC(=O)O)CCN(CC(=O)O)CC2)C(=O)O)C(=O)O)C(=O)O)C(N)=O)NC(=O)[C@H](CC(=O)O)NC(=O)[C@H](Cc2cnc[nH]2)NC(=O)[C@H](Cc2ccc3ccccc3c2)NC(=O)[C@H](CC(N)=O)NC(=O)[C@H](CC(N)=O)NC1=O` [compound 355, Ac-W-T-I-C(3)-N-N-(2Nal)-H-D-C(3)-W-P-[D-Lys(gE-gE-gE-DOTA)]-NH2] (Ac-WTICNN[2Nal]HDCWP[dK]([γGlu-γGlu-γGlu-DOTA])-NH2; disulfide 4-10), above 9.00; to `CC(=O)N[C@@H](Cc1c[nH]c2ccccc12)C(=O)N[C@H](C(=O)N[C@@H](CC(C)(C)C)C(=O)N[C@H]1CSSC[C@@H](C(=O)N[C@@H](Cc2c[nH]c3ccccc23)C(=O)N2CCC[C@H]2C(=O)N[C@H](CCCCNC(=O)CN2CCN(CC(=O)O)CCN(CC(=O)O)CCN(CC(=O)O)CC2)C(N)=O)NC(=O)[C@H](CC(=O)O)NC(=O)[C@H](Cc2cnc[nH]2)NC(=O)[C@H](Cc2ccc3ccccc3c2)NC(=O)[C@H](CC(N)=O)NC(=O)[C@H](Cc2cccnc2)NC1=O)[C@@H](C)O` [compound 289, Ac-W-T-(t-Bu-Ala)-C(3)-(3Pya)-N-(2Nal)-H-D-C(3)-W-P-[D-Lys(DOTA)]-NH2] (Ac-WT[tBuAla]C[3Pal]N[2Nal]HDCWP[dK](DOTA)-NH2; disulfide 4-10), above 9.00. To `CC[C@H](C)[C@H](NC(=O)[C@@H](NC(=O)[C@H](Cc1c[nH]c2ccccc12)NC(C)=O)[C@@H](C)O)C(=O)N[C@H]1CSSC[C@@H](C(=O)N[C@@H](Cc2c[nH]c3ccccc23)C(=O)N2CCC[C@H]2C(=O)N[C@H](CCCCNC(=O)CN2CCN(CC(=O)O)CCN(CC(=O)O)CCN(CC(=O)O)CC2)C(=O)O)NC(=O)[C@H](CC(=O)O)NC(=O)[C@H](Cc2cnc[nH]2)NC(=O)[C@H](Cc2ccc3ccccc3c2)NC(=O)[C@H](CC(N)=O)NC(=O)[C@H](CC(N)=O)NC1=O` [compound 262, Ac-W-T-I-C(3)-N-N-(2Nal)-H-D-C(3)-W-P-[D-Lys(DOTA)]-OH] (Ac-WTICNN[2Nal]HDCWP[dK](DOTA)-OH; disulfide 4-10) belongs above 9.00. To `CC[C@H](C)[C@H](NC(=O)[C@@H](NC(=O)[C@H](Cc1c[nH]c2ccccc12)NC(C)=O)[C@@H](C)O)C(=O)N[C@H]1CSSC[C@@H](C(=O)N[C@@H](Cc2c[nH]c3ccccc23)C(=O)N(C)[C@@H](C)C(=O)N[C@@H](CCCCNC(=O)CN2CCN(CC(=O)O)CCN(CC(=O)O)CCN(CC(=O)O)CC2)C(N)=O)NC(=O)[C@H](CC(=O)O)NC(=O)[C@H](Cc2c[nH]cn2)NC(=O)[C@H](Cc2c[nH]c3ccccc23)NC(=O)[C@H](CC(N)=O)NC(=O)[C@H](CC(N)=O)NC1=O` [compound 229, Ac-W-T-I-C(3)-N-N-W-H-D-C(3)-W-NmeA-[D-Lys(DOTA)]-NH2] (Ac-WTICNNWHDCW[NMeA]K(DOTA)-NH2; disulfide 4-10) belongs 7.00 to 8.00. As to `CCC(CC)[C@H](NC(=O)[C@@H](NC(=O)[C@H](Cc1c[nH]c2ccccc12)NC(C)=O)[C@@H](C)O)C(=O)N[C@H]1CSSC[C@@H](C(=O)N[C@@H](Cc2c[nH]c3ncccc23)C(=O)N2CCC[C@H]2C(=O)N[C@H](CCCCNC(=O)CN2CCN(CC(=O)O)CCN(CC(=O)O)CCN(CC(=O)O)CC2)C(N)=O)NC(=O)[C@H](CC(=O)O)NC(=O)[C@H](Cc2cnc[nH]2)NC(=O)[C@H](Cc2ccc3ccccc3c2)NC(=O)[C@H](CC(N)=O)NC(=O)[C@H](C)NC1=O` [compound 196, Ac-W-T-(Env)-C(3)-A-N-(2Nal)-H-D-C(3)-(7-Aza-W)-P-[D-Lys(DOTA)]-NH2] (Ac-WT[Nva(3-Et)]CAN[2Nal]HDC[Trp(7-aza)]P[dK](DOTA)-NH2; disulfide 4-10), the pKd was above 9.00. Take `CC[C@H](C)[C@H](NC(=O)[C@@H](NC(=O)[C@H](Cc1c[nH]c2ccccc12)NC(C)=O)[C@@H](C)O)C(=O)N[C@H]1CSSC[C@@H](C(=O)N[C@@H](Cc2c[nH]c3ccccc23)C(=O)N2CCC[C@H]2C(=O)NCC(=O)N[C@@H](CO)C(=O)NCC(=O)N[C@@H](CO)C(=O)NCC(=O)N[C@@H](CO)C(=O)N[C@H](CCCCNC(=O)CN2CCN(CC(=O)O)CCN(CC(=O)O)CCN(CC(=O)O)CC2)C(N)=O)NC(=O)C(CC(=O)O)NC(=O)[C@H](Cc2cnc[nH]2)NC(=O)[C@H](Cc2ccc3ccccc3c2)NC(=O)[C@H](CC(N)=O)NC(=O)[C@H](CC(N)=O)NC1=O` (stereo partly drawn) [compound 232, Ac-W-T-I-C(3)-N-N-(2Nal)-H-D-C(3)-W-P-G-S-G-S-G-S-[D-Lys(DOTA)]-NH2] (Ac-WTICNN[2Nal]H[ξD]CWPGSGSGS[dK](DOTA)-NH2; disulfide 4-10): the pKd is above 9.00.
